# Experimental data reported in paper PMC6958661, “Regulatory Role of PlaR (YiaJ) for Plant Utilization in Escherichia coli K-12” (Scientific Reports, 2019).
# Target: T1, PlaR (YiaJ) (Escherichia coli, UniProt P37671)
# T1 sequence (P37671 1-282): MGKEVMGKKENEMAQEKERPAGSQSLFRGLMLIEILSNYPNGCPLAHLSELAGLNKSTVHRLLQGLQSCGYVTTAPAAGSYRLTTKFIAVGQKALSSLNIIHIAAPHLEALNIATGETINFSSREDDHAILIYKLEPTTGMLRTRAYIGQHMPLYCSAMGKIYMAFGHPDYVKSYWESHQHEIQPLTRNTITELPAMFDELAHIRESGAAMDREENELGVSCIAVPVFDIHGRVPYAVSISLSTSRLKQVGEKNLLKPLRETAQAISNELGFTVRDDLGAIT
# Assay: gel shift assay, dissociation of PlaR from yiaK promoter DNA
# Format: binding
# Settings: 2.5 uM PlaR, yiaK promoter probe, 1-25 mM compound, 37 °C, pH 7.8, 150 mM NaCl, 3 mM Mg acetate; effector (inducer)
row,SMILES,"gel shift assay, dissociation of PlaR from yiaK promoter DNA"
1,O=C(O)[C@H]1O[C@H](O)[C@H](O)[C@@H](O)[C@H]1O [α-D-galacturonate],Both the metabolites induced a dose-dependent dissociation in vitro of PlaR from the PlaR-yiaK promoter
2,O=C1O[C@H]([C@@H](O)CO)C(O)=C1O [L-ascorbate],Both the metabolites induced a dose-dependent dissociation in vitro of PlaR from the PlaR-yiaK promoter
